# Assay results as given in publication PMC6458995, “MAP4K4 Inhibition Promotes Survival of Human Stem Cell-Derived Cardiomyocytes and Reduces Infarct Size In Vivo” (Cell Stem Cell, 2019).
# Legend:
# Assay in all cases: Dundee kinase panel
# Type in all cases: biochemical
# Details in all cases: for remaining activity at 1 µM: read-out: residual activity
# SIK2 = target: T1, SIK2 (Homo sapiens, UniProt Q9H0K1)
# T1 construct: lines 1-140) and Reaction Biology
# Protocol: (§1) Compounds were screened at 1 μM. For key hits, pIC50 values were then determined by HTRF as above. […] Stability in mouse and human liver microsomes was determined by Cyprotex.
# BRSK2 = target: T2, BRSK2 (Homo sapiens, UniProt Q8IWQ3)
# T2 construct: lines 1-140) and Reaction Biology
# T2 sequence (Q8IWQ3 1-736): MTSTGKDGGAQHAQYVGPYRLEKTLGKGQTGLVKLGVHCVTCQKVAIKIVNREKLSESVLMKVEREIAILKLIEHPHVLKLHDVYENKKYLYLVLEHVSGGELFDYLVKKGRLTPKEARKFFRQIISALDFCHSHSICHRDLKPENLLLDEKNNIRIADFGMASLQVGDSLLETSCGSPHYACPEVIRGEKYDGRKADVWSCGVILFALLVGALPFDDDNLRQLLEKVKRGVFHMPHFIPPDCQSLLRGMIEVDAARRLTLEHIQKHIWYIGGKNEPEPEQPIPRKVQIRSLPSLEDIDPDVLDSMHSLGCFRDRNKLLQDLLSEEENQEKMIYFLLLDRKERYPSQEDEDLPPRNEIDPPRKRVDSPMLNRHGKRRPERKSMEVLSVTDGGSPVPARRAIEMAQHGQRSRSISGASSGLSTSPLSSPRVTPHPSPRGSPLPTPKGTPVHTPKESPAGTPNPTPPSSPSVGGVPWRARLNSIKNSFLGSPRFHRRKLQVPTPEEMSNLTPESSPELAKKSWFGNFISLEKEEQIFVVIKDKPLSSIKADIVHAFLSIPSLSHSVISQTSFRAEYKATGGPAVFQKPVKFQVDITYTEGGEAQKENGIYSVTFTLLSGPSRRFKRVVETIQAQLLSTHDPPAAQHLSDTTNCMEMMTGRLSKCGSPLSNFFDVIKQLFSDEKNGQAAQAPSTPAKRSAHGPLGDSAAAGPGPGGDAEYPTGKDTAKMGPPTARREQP
# Protocol: as §1
# MST3 = target: T3, MST3 (Homo sapiens, UniProt Q9Y6E0)
# T3 construct: lines 1-140) and Reaction Biology
# T3 sequence (Q9Y6E0 whole entry): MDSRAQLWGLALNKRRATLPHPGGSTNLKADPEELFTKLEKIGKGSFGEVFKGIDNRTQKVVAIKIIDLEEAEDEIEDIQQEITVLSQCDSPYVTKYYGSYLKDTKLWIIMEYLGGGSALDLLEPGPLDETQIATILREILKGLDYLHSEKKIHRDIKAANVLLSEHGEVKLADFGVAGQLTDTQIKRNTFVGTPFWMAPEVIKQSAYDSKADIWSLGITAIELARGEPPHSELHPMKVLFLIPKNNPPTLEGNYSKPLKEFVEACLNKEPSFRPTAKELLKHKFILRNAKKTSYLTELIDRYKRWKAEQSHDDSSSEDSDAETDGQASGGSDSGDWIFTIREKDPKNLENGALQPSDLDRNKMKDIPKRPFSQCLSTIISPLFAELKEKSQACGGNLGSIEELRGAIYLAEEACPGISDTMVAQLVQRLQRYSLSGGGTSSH
# Protocol: as §1
# ASK1 = target: T4, ASK1 (Homo sapiens, UniProt Q99683)
# T4 construct: lines 1-140) and Reaction Biology
# T4 sequence (Q99683 1-1374): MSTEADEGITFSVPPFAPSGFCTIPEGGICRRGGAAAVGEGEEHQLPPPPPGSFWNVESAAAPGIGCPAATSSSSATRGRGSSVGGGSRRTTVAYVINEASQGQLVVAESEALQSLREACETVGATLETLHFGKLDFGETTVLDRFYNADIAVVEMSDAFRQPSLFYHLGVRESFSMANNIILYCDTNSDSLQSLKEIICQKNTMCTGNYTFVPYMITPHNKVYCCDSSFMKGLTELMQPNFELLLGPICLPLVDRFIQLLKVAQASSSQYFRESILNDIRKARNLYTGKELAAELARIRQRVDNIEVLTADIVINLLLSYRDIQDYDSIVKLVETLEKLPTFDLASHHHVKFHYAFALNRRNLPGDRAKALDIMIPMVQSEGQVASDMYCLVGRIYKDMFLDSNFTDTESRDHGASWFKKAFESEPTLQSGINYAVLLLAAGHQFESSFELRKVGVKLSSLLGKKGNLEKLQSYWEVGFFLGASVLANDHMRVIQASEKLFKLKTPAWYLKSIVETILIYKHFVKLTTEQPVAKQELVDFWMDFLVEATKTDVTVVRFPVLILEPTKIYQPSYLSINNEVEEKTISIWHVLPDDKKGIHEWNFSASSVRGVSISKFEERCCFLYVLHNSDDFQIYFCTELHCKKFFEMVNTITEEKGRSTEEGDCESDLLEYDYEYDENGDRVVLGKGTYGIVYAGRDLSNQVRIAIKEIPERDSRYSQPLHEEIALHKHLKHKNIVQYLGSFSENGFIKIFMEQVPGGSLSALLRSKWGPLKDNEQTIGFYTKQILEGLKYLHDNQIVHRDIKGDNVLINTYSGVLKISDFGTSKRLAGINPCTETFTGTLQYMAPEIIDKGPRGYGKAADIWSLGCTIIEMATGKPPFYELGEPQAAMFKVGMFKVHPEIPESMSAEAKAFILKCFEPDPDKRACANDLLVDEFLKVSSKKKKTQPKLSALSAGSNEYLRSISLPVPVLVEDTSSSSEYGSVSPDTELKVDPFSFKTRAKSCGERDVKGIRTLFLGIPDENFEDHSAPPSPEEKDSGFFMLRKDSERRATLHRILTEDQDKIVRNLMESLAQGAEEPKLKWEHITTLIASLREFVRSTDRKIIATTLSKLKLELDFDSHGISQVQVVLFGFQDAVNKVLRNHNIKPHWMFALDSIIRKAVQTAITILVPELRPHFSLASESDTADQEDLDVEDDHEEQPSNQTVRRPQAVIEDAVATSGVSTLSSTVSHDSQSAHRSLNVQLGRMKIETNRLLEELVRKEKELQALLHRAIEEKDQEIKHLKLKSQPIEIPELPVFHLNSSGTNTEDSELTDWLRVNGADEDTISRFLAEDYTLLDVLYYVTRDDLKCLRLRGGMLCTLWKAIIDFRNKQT
# Protocol: as §1
# BTK = target: T5, BTK (Homo sapiens, UniProt Q06187)
# T5 construct: lines 1-140) and Reaction Biology
# T5 sequence (Q06187 whole entry): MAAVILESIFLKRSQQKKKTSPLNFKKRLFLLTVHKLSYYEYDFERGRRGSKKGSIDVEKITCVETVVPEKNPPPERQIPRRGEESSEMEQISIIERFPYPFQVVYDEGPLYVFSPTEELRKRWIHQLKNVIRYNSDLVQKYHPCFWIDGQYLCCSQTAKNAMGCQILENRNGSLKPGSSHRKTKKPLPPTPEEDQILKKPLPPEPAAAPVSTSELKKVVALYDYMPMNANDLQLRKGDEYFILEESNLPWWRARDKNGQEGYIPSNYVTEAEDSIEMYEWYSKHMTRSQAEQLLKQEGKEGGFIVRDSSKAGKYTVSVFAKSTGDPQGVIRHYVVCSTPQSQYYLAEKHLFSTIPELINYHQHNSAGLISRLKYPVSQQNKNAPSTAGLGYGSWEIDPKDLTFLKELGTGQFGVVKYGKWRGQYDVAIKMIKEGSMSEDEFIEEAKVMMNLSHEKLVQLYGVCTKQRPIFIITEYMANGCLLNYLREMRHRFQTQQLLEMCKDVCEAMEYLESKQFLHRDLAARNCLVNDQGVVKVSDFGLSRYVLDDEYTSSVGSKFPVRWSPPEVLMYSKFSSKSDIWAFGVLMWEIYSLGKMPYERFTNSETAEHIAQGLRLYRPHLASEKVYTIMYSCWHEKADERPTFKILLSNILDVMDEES
# Protocol: as §1
# PDGFRA = target: T6, PDGFRA (Homo sapiens, UniProt P16234)
# T6 construct: lines 1-140) and Reaction Biology
# T6 sequence (P16234 24-1089): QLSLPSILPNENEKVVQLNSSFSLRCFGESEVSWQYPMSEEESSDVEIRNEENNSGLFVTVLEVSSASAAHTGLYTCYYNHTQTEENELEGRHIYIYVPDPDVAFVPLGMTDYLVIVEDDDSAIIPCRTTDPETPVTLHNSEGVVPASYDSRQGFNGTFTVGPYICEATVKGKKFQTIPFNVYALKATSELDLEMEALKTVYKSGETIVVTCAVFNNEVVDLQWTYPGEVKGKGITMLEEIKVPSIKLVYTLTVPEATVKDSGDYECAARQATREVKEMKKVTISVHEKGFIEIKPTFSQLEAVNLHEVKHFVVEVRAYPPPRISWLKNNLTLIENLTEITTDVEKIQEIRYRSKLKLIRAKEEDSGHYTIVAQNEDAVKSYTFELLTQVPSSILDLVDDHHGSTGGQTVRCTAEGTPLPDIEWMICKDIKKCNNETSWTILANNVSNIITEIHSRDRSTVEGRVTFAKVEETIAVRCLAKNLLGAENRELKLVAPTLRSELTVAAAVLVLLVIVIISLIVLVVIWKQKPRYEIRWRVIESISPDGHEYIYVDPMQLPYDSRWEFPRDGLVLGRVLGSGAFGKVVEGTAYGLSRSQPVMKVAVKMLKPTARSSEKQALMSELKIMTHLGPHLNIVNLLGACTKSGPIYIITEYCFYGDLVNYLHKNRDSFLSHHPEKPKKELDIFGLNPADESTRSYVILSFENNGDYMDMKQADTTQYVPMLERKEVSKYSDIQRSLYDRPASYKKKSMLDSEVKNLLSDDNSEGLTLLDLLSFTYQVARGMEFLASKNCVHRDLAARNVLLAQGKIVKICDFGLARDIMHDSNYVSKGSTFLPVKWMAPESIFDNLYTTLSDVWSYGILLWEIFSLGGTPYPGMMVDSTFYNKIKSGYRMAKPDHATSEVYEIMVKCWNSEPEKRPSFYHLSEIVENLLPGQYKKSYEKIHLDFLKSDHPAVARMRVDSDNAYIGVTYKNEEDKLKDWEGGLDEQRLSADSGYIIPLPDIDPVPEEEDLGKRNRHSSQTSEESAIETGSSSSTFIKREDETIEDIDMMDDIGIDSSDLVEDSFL
# Protocol: as §1
# NEK6 = target: T7, NEK6 (Homo sapiens, UniProt Q9HC98)
# T7 construct: lines 1-140) and Reaction Biology
# T7 sequence (Q9HC98 whole entry): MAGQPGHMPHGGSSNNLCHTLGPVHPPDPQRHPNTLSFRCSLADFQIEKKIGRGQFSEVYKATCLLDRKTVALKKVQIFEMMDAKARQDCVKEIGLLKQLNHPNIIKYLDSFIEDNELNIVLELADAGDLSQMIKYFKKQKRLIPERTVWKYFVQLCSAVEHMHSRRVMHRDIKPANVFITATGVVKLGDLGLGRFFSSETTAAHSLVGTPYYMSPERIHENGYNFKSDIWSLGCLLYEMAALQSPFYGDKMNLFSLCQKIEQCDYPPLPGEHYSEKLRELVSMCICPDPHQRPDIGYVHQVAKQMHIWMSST
# Protocol: as §1
# MKK1 = target: T8, MKK1 (Homo sapiens, UniProt Q02750)
# T8 construct: lines 1-140) and Reaction Biology
# T8 sequence (Q02750 whole entry): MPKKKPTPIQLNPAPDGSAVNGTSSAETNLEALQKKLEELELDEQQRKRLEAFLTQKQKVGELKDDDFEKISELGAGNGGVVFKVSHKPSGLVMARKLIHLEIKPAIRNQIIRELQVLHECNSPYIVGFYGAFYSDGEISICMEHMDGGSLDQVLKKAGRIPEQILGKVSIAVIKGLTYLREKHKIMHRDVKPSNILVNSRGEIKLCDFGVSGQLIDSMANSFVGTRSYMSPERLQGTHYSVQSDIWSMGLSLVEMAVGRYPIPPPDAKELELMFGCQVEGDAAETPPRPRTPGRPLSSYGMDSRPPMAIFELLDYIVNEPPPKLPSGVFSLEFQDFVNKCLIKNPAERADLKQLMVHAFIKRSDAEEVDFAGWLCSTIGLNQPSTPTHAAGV
# Protocol: as §1
# NEK2a = target: T9, NEK2a (Homo sapiens, UniProt P51955)
# T9 construct: lines 1-140) and Reaction Biology
# T9 sequence (P51955 1-445): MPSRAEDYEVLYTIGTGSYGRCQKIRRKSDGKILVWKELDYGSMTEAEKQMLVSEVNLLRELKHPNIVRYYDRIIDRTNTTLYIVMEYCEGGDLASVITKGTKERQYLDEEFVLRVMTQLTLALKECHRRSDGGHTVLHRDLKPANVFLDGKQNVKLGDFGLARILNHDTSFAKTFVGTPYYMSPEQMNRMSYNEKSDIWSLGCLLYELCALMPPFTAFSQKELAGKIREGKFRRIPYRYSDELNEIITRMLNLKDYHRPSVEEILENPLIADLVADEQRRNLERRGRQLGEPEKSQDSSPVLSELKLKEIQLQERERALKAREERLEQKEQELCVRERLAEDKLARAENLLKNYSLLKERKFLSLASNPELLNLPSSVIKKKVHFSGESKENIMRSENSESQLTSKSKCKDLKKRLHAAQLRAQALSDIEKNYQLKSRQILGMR
# Protocol: as §1
# T1 sequence (Q9H0K1 whole entry): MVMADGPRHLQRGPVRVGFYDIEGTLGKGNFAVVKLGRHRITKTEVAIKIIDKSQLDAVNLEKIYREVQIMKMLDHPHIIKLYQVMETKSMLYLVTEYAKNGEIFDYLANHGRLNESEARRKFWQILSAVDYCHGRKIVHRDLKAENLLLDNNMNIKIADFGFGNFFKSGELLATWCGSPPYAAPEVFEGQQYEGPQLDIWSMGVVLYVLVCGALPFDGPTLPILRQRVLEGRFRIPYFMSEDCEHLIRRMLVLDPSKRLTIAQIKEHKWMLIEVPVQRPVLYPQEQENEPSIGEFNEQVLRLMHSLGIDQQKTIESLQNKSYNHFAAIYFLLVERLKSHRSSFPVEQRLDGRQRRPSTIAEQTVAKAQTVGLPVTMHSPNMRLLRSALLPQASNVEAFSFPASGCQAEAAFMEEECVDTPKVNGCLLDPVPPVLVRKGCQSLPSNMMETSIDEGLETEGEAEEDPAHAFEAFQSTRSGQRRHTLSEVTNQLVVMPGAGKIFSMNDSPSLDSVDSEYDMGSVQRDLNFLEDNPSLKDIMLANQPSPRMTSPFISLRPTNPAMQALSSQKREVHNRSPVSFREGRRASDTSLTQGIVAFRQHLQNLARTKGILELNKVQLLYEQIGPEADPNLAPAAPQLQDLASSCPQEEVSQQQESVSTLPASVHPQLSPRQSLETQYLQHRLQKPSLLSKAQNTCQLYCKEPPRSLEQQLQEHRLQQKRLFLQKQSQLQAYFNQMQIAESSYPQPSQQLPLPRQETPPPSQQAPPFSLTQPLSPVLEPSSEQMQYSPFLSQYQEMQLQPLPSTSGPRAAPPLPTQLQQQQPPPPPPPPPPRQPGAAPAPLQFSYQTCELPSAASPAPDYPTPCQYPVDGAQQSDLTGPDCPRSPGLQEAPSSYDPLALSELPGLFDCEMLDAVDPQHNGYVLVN
SMILES,remaining activity at 1 µM (SIK2),remaining activity at 1 µM (BRSK2),remaining activity at 1 µM (MST3),remaining activity at 1 µM (ASK1),remaining activity at 1 µM (BTK),remaining activity at 1 µM (PDGFRA),remaining activity at 1 µM (NEK6),remaining activity at 1 µM (MKK1),remaining activity at 1 µM (NEK2a),residual activity (SIK2; 1 μM),residual activity (BRSK2; 1 μM),residual activity (MST3; 1 μM),residual activity (ASK1; 1 μM),residual activity (BTK; 1 μM),residual activity (PDGFRA; 1 μM),residual activity (NEK6; 1 μM),residual activity (MKK1; 1 μM),residual activity (NEK2a; 1 μM)
"COCCOc1ccc(-c2cn(-c3ccccc3)c3nc[nH]c(=O)c23)cc1 [DMX-5804, 5-[4-(2-methoxy-ethoxy)-phenyl]-7-phenyl-3,7-dihydro-pyrrolo[2,3-d]pyrimidin-4-one]",90%,92%,95%,108%,118%,88%,101%,113%,106%,,,,,,,,,
"Oc1ncnc2c1c(-c1ccccc1)cn2-c1ccccc1 [F1386-0303, 5,7-diphenyl-7H-pyrrolo[2,3-d]pyrimidin-4-ol]",99%,91%,120%,93%,130%,93%,128%,101%,108%,,,,,,,,,
Nc1ncc(C(=O)NC2CN(C(=O)C3CC3)C2)c2ccc(-c3cccc(F)c3)nc12 [GNE-495],,,,,,,,,,102%,77%,72%,84%,82%,97%,111%,56%,85%
O=C1Nc2ccc(I)cc2/C1=C/c1cc(Br)c(O)c(Br)c1 [GW5074],24%,75%,29%,56%,75%,24%,82%,80%,8%,,,,,,,,,
O=C1Cc2c([nH]c3ccc(Br)cc23)-c2ccccc2N1 [Kenpaullone],13%,35%,67%,68%,64%,48%,99%,97%,89%,,,,,,,,,
